Read-outs that look alike come from different tables or passages of the source.
Target: Human complement C1s enzyme (Homo sapiens (Human), UniProt P09871)
Experiment: Human C1s enzyme assay
Format: biochemical
Details: read-out: IC50 (Stars)
Procedure, shortened: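 Purified serum-derived human C1s (1.16 nM final) preincubated 5 min at room temperature with compound in 50 mM Tris, 1 M NaCl, pH 7.5. Z-L-Lys-SBzl thioester substrate and DTNB added (100 μM each, final); A405 read every 30 s for 30 min. IC50 from nonlinear regression of reaction rates against compound concentration.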

[1] = Human complement C1s enzyme 1.16 nM, substrate Z-L-Lys-SBzl 100 μM, assay of Example 3
[2] = Human C1s enzyme assay of Example 3

Human complement C1s enzyme, sequence (P09871 438-688 limits assumed): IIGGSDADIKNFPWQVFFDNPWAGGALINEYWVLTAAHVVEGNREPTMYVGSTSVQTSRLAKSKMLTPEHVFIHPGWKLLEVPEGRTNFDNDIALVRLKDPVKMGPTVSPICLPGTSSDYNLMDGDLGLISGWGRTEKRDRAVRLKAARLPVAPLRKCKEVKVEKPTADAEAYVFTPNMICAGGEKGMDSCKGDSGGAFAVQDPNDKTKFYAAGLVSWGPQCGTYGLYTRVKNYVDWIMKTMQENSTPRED
Human complement C1s enzyme, sequence (P09871 16-437 partner limits assumed): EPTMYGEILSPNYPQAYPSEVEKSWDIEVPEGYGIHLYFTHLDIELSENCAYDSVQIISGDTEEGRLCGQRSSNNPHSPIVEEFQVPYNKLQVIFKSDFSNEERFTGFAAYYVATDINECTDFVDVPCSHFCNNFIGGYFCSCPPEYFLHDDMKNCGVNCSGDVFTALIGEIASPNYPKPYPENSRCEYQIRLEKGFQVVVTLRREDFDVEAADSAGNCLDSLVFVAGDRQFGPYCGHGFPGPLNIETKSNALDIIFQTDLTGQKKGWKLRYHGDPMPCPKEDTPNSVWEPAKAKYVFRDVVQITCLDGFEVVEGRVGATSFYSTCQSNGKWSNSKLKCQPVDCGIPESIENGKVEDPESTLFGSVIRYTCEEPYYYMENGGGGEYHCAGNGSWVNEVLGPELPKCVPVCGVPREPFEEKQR

Nc1c(Nc2csc(CNC(=O)[C@@H]3CC4(CN3C(=O)CNC(=O)c3ccc(Oc5ccc(F)cc5)cc3)OCCO4)c2)c(=O)c1=O [Compound 319, (S)-N-((4-((2-amino-3,4-dioxocyclobut-1-en-1-yl)amino)thiophen-2-yl)methyl)-7-((4-(4-fluorophenoxy)benzoyl)glycyl)-1,4-dioxa-7-azaspiro[4.4]nonane-8-carboxamide]
IC50 [1]: > 1000 nM

NC(=O)Nc1csc(CNC(=O)[C@@H]2CC3(CN2C(=O)CNC(=O)c2ccc(Oc4ccc(F)cc4)cc2)OCCO3)c1 [Compound 317, (S)-7-((4-(4-fluorophenoxy)benzoyl)glycyl)-N-((4-ureidothiophen-2-yl)methyl)-1,4-dioxa-7-azaspiro[4.4]nonane-8-carboxamide]
IC50 [1]: > 1000 nM

C[C@@H](NC(=O)[C@@H]1C[C@@H](Oc2ccccc2)CN1C(=O)CNC(=O)c1ccc(Oc2ccc(F)cc2)cc1)c1cc(C(=N)N)cs1 [Compound 37, (2S,4R)—N—((R)-1-(4-carbamimidoylthiophen-2-yl)ethyl)-1-((4-(4-fluorophenoxy)benzoyl)glycyl)-4-phenoxypyrrolidine-2-carboxamide]
IC50 [2]: < 100 nM

C[C@@H](NC(=O)[C@@H]1C[C@](F)(CF)CN1C(=O)CNC(=O)c1ccc2c(c1)S(=O)(=O)c1ccccc1-2)c1cc(C(=N)N)cs1 [Compound 375, (2S,4R)—N—((R)-1-(4-carbamimidoylthiophen-2-yl)ethyl)-1-((5,5-dioxidodibenzo[b,d]thiophene-3-carbonyl)glycyl)-4-fluoro-4-(fluoromethyl)pyrrolidine-2-carboxamide]
IC50 [1]: < 100 nM

C[C@@H](NC(=O)[C@@H]1C[C@]2(COCCN(C)C)C[C@@H]2N1C(=O)CNC(=O)c1ccc2c(c1)-c1ccccc1C2(F)F)c1cc(C(=N)N)cs1 [Compound 367, (1S,3S,5R)—N—((R)-1-(4-carbamimidoylthiophen-2-yl)ethyl)-2-((9,9-difluoro-9H-fluorene-3-carbonyl)glycyl)-5-((2-(dimethylamino)ethoxy)methyl)-2-azabicyclo[3.1.0]hexane-3-carboxamide]
IC50 [1]: < 100 nM

Cc1ccc2c(c1)-c1cc(C(=O)NCC(=O)N3CC4(C[C@H]3C(=O)N[C@H](C)c3cc(C(=N)N)cs3)OCCO4)ccc1C2(F)F [Compound 180, (S)—N—((R)-1-(4-carbamimidoylthiophen-2-yl)ethyl)-7-((9,9-difluoro-6-methyl-9H-fluorene-3-carbonyl)glycyl)-1,4-dioxa-7-azaspiro[4.4]nonane-8-carboxamide]
IC50 [2]: < 100 nM

C[C@@H](NC(=O)[C@@H]1CC2(CN1C(=O)CNC(=O)c1ccc(-c3cc(F)ccc3F)cc1)OCCO2)c1cc(C(=N)N)cs1 [Compound 166, (S)—N—((R)-1-(4-carbamimidoylthiophen-2-yl)ethyl)-7-((2′,5′-difluoro-[1,1′-biphenyl]-4-carbonyl)glycyl)-1,4-dioxa-7-azaspiro[4.4]nonane-8-carboxamide]
IC50 [2]: < 100 nM

Nc1ccc(-c2csc(CNC(=O)[C@@H]3CC4(CN3C(=O)CNC(=O)c3ccc(Oc5ccc(F)cc5)cc3)OCCO4)c2)cn1 [Compound 123, (S)—N-((4-(6-aminopyridin-3-yl)thiophen-2-yl)methyl)-7-((4-(4-fluorophenoxy)benzoyl)glycyl)-1,4-dioxa-7-azaspiro[4.4]nonane-8-carboxamide]
IC50 [2]: > 1000 nM

Cc1cc(C(=O)NCC(=O)N2C[C@@](F)(CF)C[C@H]2C(=O)N[C@H](C)c2cc(C(=N)N)cs2)ccc1Oc1ccccc1 [Compound 32, (2S,4R)—N—((R)-1-(4-carbamimidoylthiophen-2-yl)ethyl)-4-fluoro-4-(fluoromethyl)-1-((3-methyl-4-phenoxybenzoyl)glycyl)pyrrolidine-2-carboxamide]
IC50 [2]: < 100 nM

N=C(N)c1csc(CNC(=O)[C@@H]2CC3(CN2C(=O)CNC(=O)c2ccc(-c4ccc(C(=O)O)cc4F)cc2)OCCO3)c1 [Compound 242, (S)-4′-((2-(8-(((4-carbamimidoylthiophen-2-yl)methyl)carbamoyl)-1,4-dioxa-7-azaspiro[4.4]nonan-7-yl)-2-oxoethyl)carbamoyl)-2-fluoro-[1,1′-biphenyl]-4-carboxylic acid]
IC50 [1]: < 100 nM

C[C@@H](NC(=O)[C@@H]1CC2(CN1C(=O)CCC(=O)c1ccc(-c3ccccc3)cc1)OCCO2)c1cc(C(=N)N)cs1 [Compound 345, (S)-7-(4-([1,1′-biphenyl]-4-yl)-4-oxobutanoyl)-N—((R)-1-(4-carbamimidoylthiophen-2-yl)ethyl)-1,4-dioxa-7-azaspiro[4.4]nonane-8-carboxamide]
IC50 [1]: < 100 nM

CCCCCCOC(=O)/N=C(/N)c1csc([C@@H](C)NC(=O)[C@@H]2C[C@@H](OC(F)F)CN2C(=O)CNC(=O)c2ccc3c(c2)-c2ccccc2C3(F)F)c1 [Compound 258, hexyl ((E)-amino(5-((R)-1-((2S,4R)-1-((9,9-difluoro-9H-fluorene-3-carbonyl)glycyl)-4-(difluoromethoxy)pyrrolidine-2-carboxamido)ethyl)thiophen-3-yl)methylene)carbamate]
IC50 [1]: < 100 nM

CC1c2ccccc2-c2cc(C(=O)NCC(=O)N3CC4(C[C@H]3C(=O)NCc3cc(C(=N)N)cs3)OCCO4)ccc21 (stereo partly drawn) [Compound 110, (8S)—N-((4-carbamimidoylthiophen-2-yl)methyl)-7-((9-methyl-9H-fluorene-3-carbonyl)glycyl)-1,4-dioxa-7-azaspiro[4.4]nonane-8-carboxamide]
IC50 [2]: < 100 nM

N=C(N)c1csc([C@@H](CO)NC(=O)[C@@H]2C[C@@H](OC(F)F)CN2C(=O)CNC(=O)c2ccc3c(c2)-c2ccccc2C3(F)F)c1 [Compound 403, (2S,4R)—N—((R)-1-(4-carbamimidoylthiophen-2-yl)-2-hydroxyethyl)-1-((9,9-difluoro-9H-fluorene-3-carbonyl)glycyl)-4-(difluoromethoxy) pyrrolidine-2-carboxamide]
IC50 (Human complement C1s enzyme 1.16 nM, substrate Z-L-Lys-SBzl, assay of Example 3): < 100 nM

Cc1ccc(-c2cnc(C(=O)NCC(=O)N3CC4(C[C@H]3C(=O)N[C@H](C)c3cc(C(=N)N)cs3)OCCO4)c(F)c2)cc1 [Compound 388, (S)—N—((R)-1-(4-carbamimidoylthiophen-2-yl)ethyl)-7-((3-fluoro-5-(p-tolyl)picolinoyl)glycyl)-1,4-dioxa-7-azaspiro[4.4]nonane-8-carboxamide]
IC50 [1]: < 100 nM

C[C@@H](NC(=O)[C@@H]1CC2(CN1C(=O)CNC(=O)c1ccc3c(c1)-c1ccccc1C3(F)F)OCCO2)c1cc(-c2nnc[nH]2)cs1 [Compound 130, (S)—N—((R)-1-(4-(4H-1,2,4-triazol-3-yl)thiophen-2-yl)ethyl)-7-((9,9-difluoro-9H-fluorene-3-carbonyl)glycyl)-1,4-dioxa-7-azaspiro[4.4]nonane-8-carboxamide]
IC50 [2]: 100 to 1000 nM

CS(=O)(=O)c1ccc(-c2ccc(C(=O)NCC(=O)N3CC4(C[C@H]3C(=O)NCc3cc(C(=N)N)cs3)OCCO4)cc2)cc1 [Compound 183, (S)—N-((4-carbamimidoylthiophen-2-yl)methyl)-7-((4′-(methylsulfonyl)-[1,1′-biphenyl]-4-carbonyl)glycyl)-1,4-dioxa-7-azaspiro[4.4]nonane-8-carboxamide]
IC50 [2]: < 100 nM

Cc1ccc(-c2cccc(C(=O)NCC(=O)N3C[C@H](S(C)(=O)=O)C[C@H]3C(=O)N[C@H](C)c3cc(C(=N)N)cs3)c2)cc1 [Compound 335, (2S,4R)—N—((R)-1-(4-carbamimidoylthiophen-2-yl)ethyl)-1-((4′-methyl-[1,1′-biphenyl]-3-carbonyl)glycyl)-4-(methylsulfonyl)pyrrolidine-2-carboxamide]
IC50 [1]: < 100 nM
